Where two headings read alike, the source gives them in different places.

In US9296698B2, “Amino heteroaryl compounds as beta-secretase modulators and methods of use” (Amgen Inc., priority 2009, dated 2016) one finds IC50 data, which are given here for 13 molecules.

In experiment [1] the target is BACE 1 (Beta Secretase enzyme) (Homo sapiens, UniProt P56817). The experiment is described as follows: In vitro enzymatic BACE FRET assay. The format is biochemical. A digest of the protocol: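 BACE activity read by FRET: peptide substrate (50 nM) carrying fluorophore and quencher across the cleavage site, incubated one hour in 0.05 M acetate pH 4.2, 10% DMSO final, 100 uM genapol. Tris addition raises pH to neutrality to stop the reaction before fluorescence is read.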
BACE 1 (Beta Secretase enzyme), sequence (P56817 46-501, species assumed): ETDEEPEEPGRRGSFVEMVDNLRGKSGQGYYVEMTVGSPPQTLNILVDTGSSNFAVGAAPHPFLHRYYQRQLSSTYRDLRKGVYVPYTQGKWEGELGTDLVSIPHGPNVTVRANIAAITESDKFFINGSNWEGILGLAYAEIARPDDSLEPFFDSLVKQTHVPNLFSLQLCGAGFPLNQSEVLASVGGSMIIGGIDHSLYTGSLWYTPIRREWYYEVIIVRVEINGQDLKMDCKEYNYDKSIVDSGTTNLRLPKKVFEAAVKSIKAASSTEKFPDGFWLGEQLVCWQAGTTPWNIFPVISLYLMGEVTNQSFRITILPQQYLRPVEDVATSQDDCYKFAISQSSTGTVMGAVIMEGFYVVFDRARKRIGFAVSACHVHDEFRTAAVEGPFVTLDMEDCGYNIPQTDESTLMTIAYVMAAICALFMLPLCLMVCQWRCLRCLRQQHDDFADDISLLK

The test system of experiment [2] is Aβ40 in conditioned medium of cells stably expressing Amyloid Precursor Protein (APP). The experiment is described as follows: In vitro BACE cell-based assay (HEK cell assay), Aβ40 sandwich ELISA. A digest of the protocol:
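Cells stably expressing APP received 10-point compound dilutions (top 100 μM or 10 μM; 0.1% DMSO) for 24 h. Secreted Aβ40 was quantified by sandwich ELISA (pAb40 capture, biotinylated 6E10 detection, europium time-resolved fluorescence). IC50 was derived from percent inhibition versus concentration.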
Background: In an ELISA, binding on a coated surface is turned into a signal by an enzyme label.

The mark [3] stands for this setting: IC50 range symbols, Table 1, read-out: BACE 1 FRET assay.
Where [4] appears, read: Homo sapiens, HEK293, 24 h, IC50 range symbols, Table 1, Aβ40, 24 h incubation, read-out: HEK cell assay.
The mark [5] stands for this setting: IC50 range symbols, Table 1, Aβ40, 24 h incubation, read-out: HEK cell assay.

Turning to `Cc1ccccc1-c1ccc2nc(N)c(CCC(=O)NCC3CCOCC3)cc2c1` [Example 19, 3-(2-amino-6-o-tolylquinolin-3-yl)-N-((tetrahydro-2H-pyran-4-yl)methyl)propanamide], the IC50 in experiment [1] (setting [3]) was less than 500 nM; in experiment [2] (setting [4]), 1000 to 5000 nM.
For `CC(Cc1cc2cc(-c3ncccc3CCN3CCCC3)ccc2nc1N)C(=O)NCCC(C)(C)C` (stereo not shown) [Example 125, 3-(2-amino-6-(3-(2-(pyrrolidin-1-yl)ethyl)pyridin-2-yl)quinolin-3-yl)-N-(3,3-dimethylbutyl)-2-methylpropanamide], the IC50 in experiment [1] (setting [3]) and in experiment [2] (setting [4]) was less than 500 nM in each case.
With `COCC1CC1c1ccc2nc(N)c(CC(C)C(=O)NCCC(C)(C)C)cc2c1` (stereo not shown) [Example 119, 3-(2-amino-6-(2-(methoxymethyl)cyclopropyl)quinolin-3-yl)-N-(3,3-dimethylbutyl)-2-methylpropanamide], the IC50 in experiment [1] (setting [3]) and in experiment [2] (setting [4]) was greater than 5000 nM each time.
With `Cc1cccc(C(=O)N2CCCC2)c1-c1ccc2nc(N)c(CC(C)C(=O)NCc3ccccc3)cc2c1` (stereo not shown) [Example 151, 3-(2-amino-6-(2-methyl-6-(pyrrolidine-1-carbonyl)phenyl)quinolin-3-yl)-N-benzyl-2-methylpropanamide], the IC50 in experiment [1] (setting [3]) and in experiment [2] (setting [4]) was less than 500 nM throughout.
As for “3-(3-amino-7-o-tolylnaphthalen-2-yl)-N-(1-(2-methoxyphenyl)ethyl)-2-methylpropanamide [Example 70]”, the IC50 is less than 500 nM in experiment [1] (setting [3]) and 1000 to 5000 nM in experiment [2] (setting [5]).
Take `CC(Cc1cc2cc(-c3ccccn3)ccc2nc1N)C(=O)NCCC(C)(C)C` (stereo not shown) [Example 122, 3-(2-amino-6-(pyridin-2-yl)quinolin-3-yl)-N-(3,3-dimethylbutyl)-2-methylpropanamide]: the values for the IC50 in experiment [1] (setting [3]) and in experiment [2] (setting [4]) were less than 500 nM and 500 to 1000 nM, respectively.
Taken in the same sequence, the figures for `Cc1cccc(C(=O)N2CCCC2)c1-c1ccc2nc(N)c(CC(C)C(=O)NC3CC3)cc2c1` (stereo not shown) [Example 150, 3-(2-amino-6-(2-methyl-6-(pyrrolidine-1-carbonyl)phenyl)quinolin-3-yl)-N-cyclopropyl-2-methylpropanamide] were less than 500 nM and less than 500 nM.
Turning to `Cc1ccccc1-c1ccc2nc(N)c(CCC(=O)NCC3CCCO3)cc2c1` (stereo not shown) [Example 17, 3-(2-amino-6-o-tolylquinolin-3-yl)-N-((tetrahydrofuran-2-yl)methyl)propanamide], the IC50 in experiment [1] (setting [3]) was less than 500 nM; in experiment [2] (setting [4]), greater than 5000 nM.
Taken in the same sequence, the figures for `Cc1ccccc1-c1cc2cc(CCC(=O)NCC3CCCCC3)c(N)nc2cc1C` [Example 95, 3-(2-amino-7-methyl-6-(2-methylphenyl)-3-quinolinyl)-N-(cyclohexylmethyl)propanamide] were less than 500 nM and greater than 5000 nM.
Consider `CO[C@@H]1CCC[C@H]1NC(=O)CCc1cc2cc(-c3ccccc3C)ccc2nc1N` [Example 62, 3-(2-amino-6-o-tolylquinolin-3-yl)-N-((1R,2R)-2-methoxycyclopentyl)propanamide], for which the IC50 in experiment [1] (setting [3]) is less than 500 nM; in experiment [2] (setting [4]), 1000 to 5000 nM.
Take `Cc1ccccc1-c1ccc2nc(N)c(CCC(=O)N[C@H](C)c3cccnc3)cc2c1` [Example 131, (R)-3-(2-amino-6-o-tolylquinolin-3-yl)-N-(1-(pyridin-3-yl)ethyl)propanamide]: the IC50 is less than 500 nM in experiment [1] (setting [3]) and 1000 to 5000 nM in experiment [2] (setting [5]).
For `Cc1cccc(C(=O)N2CCCC2)c1-c1ccc2nc(N)c(CC(C)C(=O)Nc3ccccc3)cc2c1` (stereo not shown) [Example 153, 3-(2-amino-6-(2-methyl-6-(pyrrolidine-1-carbonyl)phenyl)quinolin-3-yl)-2-methyl-N-phenylpropanamide], the IC50 is less than 500 nM in experiment [1] (setting [3]); less than 50 nM in experiment [1] (bound stated, read-out: IC50 value in the FRET BACE enzyme assay); less than 500 nM in experiment [2] (setting [4]); less than 100 nM in experiment [2] (Homo sapiens, HEK293, bound stated in text, read-out: IC50 value in the BACE cell-based in-vitro assay).
As for “N-(3-fluoro-3-methylbutyl)-2-methyl-3-(6-(3-methylpyridin-2-yl)quinolin-3-yl)propanamide [Example 101]”, the IC50 in experiment [1] (setting [3]) and in experiment [2] (setting [5]) was less than 500 nM in each case.
